The text below walks through data of article PMC5574184 (Journal of medicinal chemistry, 2016).

SMILES strings stand for the structures. Entries after “also recorded” stand apart in the source; their conditions may differ.

One data set has as its target HDAC2 (Homo sapiens, UniProt Q92769). Briefly: ELISA-based HDAC activity assay. Format: biochemical. In general terms: An ELISA detects its analyte on a solid surface through an enzyme-linked reagent.
Data set [1] in a line: NCI nontumored animal toxicity assay for acute toxicity. Type of data set: in vivo. To be noted: highest dose of 50 mg/kg tested.
In another data set the test system is 60 NCI cell lines. The data set can be described thus: NCI-60 dose response assay. As to conditions: for GI50 in the dose response assay (in words): most of the NCI-60 cell lines. Format: cell-based, human.
In another data set the target is HDAC3 (Homo sapiens, UniProt O15379). Briefly: ELISA-based HDAC activity assay. Format: biochemical.
HDAC3, sequence (O15379 whole entry): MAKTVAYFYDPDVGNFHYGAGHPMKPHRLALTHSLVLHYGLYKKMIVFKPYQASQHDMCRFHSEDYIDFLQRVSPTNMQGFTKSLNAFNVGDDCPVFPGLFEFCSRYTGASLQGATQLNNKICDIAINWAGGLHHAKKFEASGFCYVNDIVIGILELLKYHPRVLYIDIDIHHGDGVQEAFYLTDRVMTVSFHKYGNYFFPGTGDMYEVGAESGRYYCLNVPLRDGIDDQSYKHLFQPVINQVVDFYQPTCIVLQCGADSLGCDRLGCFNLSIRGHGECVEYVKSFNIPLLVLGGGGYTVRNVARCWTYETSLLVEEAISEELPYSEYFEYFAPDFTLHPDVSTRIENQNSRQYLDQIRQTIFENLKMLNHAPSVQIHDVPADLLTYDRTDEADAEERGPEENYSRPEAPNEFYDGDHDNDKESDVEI
HDAC3, sequence (Q9Y618 whole entry partner): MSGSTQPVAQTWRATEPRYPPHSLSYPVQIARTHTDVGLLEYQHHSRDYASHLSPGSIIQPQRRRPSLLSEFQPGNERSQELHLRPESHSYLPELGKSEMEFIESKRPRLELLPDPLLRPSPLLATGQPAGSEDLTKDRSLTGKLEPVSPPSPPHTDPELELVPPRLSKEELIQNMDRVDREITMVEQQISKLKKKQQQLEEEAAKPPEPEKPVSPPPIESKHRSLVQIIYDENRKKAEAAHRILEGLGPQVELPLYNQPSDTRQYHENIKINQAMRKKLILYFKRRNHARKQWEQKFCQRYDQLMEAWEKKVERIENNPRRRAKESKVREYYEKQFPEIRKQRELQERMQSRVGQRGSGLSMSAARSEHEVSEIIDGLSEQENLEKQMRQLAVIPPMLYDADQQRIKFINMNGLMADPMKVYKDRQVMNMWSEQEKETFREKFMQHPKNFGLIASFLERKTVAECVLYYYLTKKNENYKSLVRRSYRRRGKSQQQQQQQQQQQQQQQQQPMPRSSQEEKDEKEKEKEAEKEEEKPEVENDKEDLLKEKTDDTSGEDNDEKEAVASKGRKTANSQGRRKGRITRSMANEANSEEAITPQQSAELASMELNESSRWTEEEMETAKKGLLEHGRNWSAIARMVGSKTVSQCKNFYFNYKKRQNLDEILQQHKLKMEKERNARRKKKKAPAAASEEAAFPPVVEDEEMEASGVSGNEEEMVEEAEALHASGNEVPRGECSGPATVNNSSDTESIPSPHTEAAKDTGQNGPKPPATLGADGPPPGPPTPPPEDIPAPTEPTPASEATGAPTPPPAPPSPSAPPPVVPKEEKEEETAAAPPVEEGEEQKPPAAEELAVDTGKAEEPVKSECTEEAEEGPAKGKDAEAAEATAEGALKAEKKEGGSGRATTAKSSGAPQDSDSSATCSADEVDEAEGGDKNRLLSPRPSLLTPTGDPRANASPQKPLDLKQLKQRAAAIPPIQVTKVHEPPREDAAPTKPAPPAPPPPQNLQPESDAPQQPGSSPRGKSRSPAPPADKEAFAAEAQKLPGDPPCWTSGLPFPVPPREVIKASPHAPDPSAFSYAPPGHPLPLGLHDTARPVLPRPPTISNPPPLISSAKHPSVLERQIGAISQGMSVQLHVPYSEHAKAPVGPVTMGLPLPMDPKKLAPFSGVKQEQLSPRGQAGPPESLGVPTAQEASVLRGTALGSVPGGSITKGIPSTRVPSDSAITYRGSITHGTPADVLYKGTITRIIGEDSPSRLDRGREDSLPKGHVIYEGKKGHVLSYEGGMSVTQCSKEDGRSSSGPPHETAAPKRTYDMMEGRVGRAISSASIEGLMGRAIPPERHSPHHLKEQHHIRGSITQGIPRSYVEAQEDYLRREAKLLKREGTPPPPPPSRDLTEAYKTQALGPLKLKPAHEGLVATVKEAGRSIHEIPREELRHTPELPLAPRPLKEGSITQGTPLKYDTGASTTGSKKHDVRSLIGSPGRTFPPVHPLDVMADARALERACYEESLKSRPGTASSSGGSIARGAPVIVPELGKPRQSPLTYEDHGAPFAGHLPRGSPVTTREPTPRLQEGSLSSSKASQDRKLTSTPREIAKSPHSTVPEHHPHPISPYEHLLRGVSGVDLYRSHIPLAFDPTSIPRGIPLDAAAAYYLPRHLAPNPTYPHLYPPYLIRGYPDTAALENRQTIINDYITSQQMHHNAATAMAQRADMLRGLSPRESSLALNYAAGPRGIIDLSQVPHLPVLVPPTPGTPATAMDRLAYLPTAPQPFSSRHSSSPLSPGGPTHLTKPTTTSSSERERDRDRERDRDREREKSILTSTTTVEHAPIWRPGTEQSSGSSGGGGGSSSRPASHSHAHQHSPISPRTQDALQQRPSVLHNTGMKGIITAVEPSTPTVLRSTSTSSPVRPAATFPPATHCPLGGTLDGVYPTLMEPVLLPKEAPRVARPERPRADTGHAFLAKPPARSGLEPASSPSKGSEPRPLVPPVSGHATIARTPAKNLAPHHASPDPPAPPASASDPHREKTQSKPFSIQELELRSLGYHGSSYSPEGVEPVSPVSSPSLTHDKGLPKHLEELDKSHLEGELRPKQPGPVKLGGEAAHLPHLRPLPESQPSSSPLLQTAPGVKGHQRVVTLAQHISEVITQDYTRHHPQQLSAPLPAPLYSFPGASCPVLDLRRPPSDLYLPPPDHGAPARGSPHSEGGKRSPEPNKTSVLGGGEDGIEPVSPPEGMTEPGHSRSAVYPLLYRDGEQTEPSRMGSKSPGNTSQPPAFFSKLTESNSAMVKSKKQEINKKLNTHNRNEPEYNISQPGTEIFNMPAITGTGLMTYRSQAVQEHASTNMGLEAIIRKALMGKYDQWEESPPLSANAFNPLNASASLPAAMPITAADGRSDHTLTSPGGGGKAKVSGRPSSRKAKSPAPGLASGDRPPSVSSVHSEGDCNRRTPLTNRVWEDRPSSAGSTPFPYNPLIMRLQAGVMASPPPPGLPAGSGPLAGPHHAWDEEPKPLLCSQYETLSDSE
Another data set deals with HDAC1 (Homo sapiens, UniProt Q13547). The data set can be described thus: ELISA-based HDAC activity assay. Type of data set: biochemical.
HDAC1, sequence (Q13547 whole entry): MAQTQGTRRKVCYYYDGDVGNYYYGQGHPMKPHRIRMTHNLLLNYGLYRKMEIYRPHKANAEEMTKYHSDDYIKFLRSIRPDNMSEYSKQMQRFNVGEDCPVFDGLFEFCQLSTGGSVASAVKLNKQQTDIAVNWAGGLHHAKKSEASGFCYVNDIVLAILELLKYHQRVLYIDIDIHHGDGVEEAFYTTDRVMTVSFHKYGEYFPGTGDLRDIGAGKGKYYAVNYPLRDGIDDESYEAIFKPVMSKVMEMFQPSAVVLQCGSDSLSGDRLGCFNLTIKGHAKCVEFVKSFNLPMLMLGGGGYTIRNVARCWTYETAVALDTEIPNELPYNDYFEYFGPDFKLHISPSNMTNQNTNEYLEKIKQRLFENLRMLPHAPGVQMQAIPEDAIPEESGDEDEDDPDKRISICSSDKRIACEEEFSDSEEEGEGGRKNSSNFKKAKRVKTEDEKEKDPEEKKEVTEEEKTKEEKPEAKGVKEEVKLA
In the next data set the target is T1, HDAC6 (Homo sapiens, UniProt Q9UBN7).
T1 sequence (Q9UBN7 1-1215): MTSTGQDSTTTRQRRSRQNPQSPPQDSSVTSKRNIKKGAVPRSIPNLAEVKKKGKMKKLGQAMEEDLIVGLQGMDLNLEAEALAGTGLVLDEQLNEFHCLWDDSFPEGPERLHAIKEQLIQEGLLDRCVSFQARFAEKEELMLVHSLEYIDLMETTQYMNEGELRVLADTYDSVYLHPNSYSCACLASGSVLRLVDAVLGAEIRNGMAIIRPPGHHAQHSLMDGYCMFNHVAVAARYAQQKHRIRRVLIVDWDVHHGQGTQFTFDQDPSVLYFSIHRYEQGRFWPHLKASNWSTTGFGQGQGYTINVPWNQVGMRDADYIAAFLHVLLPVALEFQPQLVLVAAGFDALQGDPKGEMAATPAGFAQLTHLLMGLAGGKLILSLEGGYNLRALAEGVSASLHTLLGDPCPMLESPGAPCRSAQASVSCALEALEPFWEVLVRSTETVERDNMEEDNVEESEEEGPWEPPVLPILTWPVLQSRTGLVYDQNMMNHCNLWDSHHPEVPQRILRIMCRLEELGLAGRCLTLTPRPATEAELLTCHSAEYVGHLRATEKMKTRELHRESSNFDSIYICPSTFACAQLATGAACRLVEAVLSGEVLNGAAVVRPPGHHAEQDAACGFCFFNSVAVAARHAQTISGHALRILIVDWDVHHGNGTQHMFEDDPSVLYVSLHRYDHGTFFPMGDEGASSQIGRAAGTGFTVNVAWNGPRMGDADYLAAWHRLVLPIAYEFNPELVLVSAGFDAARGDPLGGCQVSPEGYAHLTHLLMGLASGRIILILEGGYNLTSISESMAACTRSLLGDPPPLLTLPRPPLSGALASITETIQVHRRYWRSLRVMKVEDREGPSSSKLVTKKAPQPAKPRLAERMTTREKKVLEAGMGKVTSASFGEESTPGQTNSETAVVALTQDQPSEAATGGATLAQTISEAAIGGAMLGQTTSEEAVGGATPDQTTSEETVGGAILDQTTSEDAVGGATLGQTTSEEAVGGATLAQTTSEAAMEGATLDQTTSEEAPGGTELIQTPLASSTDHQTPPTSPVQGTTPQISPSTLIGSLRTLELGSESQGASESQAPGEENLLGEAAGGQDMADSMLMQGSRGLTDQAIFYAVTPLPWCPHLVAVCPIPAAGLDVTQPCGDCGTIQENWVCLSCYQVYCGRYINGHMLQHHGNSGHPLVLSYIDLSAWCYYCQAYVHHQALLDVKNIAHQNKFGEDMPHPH
Briefly: ELISA-based HDAC activity assay. Format: biochemical.

Data set [2] has as its system global histone H3 lysine 9 (H3K9) acetylation in HCT116. Briefly: Western blot analysis of global histone H3 lysine 9 acetylation. To be noted: for concentration at which significant induction of global acetylation was observed: HCT116, 24 h exposure, tested at 10 nM, 100 nM, 1 μM. Type of data set: cell-based, human.
The test system of data set [3] is HCT116 colorectal cancer cell line. To be noted: read-out: GI50 previously reported; HCT 116 cell growth inhibition; cited from earlier work.
The conditions of data set [4]: mouse serum, mouse microsomal proteins, cellular proteins; cited from earlier work.

HDAC2, sequence (Q92769 whole entry): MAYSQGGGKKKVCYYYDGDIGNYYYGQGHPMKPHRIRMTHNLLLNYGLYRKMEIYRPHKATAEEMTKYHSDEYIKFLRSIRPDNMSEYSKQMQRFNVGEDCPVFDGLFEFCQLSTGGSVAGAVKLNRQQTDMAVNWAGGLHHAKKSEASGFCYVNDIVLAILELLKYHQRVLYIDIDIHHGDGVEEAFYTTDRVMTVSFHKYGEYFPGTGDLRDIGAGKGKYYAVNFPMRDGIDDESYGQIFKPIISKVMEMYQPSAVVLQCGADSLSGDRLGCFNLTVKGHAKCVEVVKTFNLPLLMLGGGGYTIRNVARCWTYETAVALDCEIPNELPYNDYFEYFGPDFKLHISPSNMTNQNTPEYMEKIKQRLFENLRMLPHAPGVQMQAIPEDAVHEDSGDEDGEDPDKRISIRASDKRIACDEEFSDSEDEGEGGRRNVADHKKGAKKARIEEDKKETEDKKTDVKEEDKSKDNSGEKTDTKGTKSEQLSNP

On to `CCCCCCCC(=O)SCC/C=C/[C@@H]1CC(=O)NCc2cccc(n2)-c2cccc(n2)C(=O)N[C@@H](C(C)C)C(=O)O1` [Analogue 7], for which, on HDAC2 (250 nM), the “inhibition of HDAC2, single concentration screen” value is reported as “significantly”. For the same compound, the acute toxicity result in data set [1] is reported as “no signs of toxicity; also recorded: well tolerated”. Also, the “concentration inhibiting the growth of most of the cancer cell lines” value with 60 NCI cell lines (NCI-60 dose response) is less than 10 nM. In addition, in the data set on 60 NCI cell lines, the “GI50 in the dose response assay (in words)” value is “low nanomolar”. On HDAC3 (250 nM), the “inhibition of HDAC3, single concentration screen” value is listed as “significantly”. The “inhibition of HDAC1, single concentration screen” value against HDAC1 (250 nM) is “significantly”. Also, the “selectivity for class I HDAC proteins (HDAC1, HDAC2, HDAC3) over class II HDAC6” value at HDAC6 (from IC50 values) is reported as “at least 464 fold”. In addition, the “concentration at which significant induction of global acetylation was observed” value in [2] worked out at 10 nM.
With `CCCCCCCC(=O)SCC/C=C/[C@@H]1CC(=O)NCCOCCOCC(=O)N[C@@H](C(C)C)C(=O)O1` [Analogue 6], the “inhibition of HDAC2, single concentration screen” value against HDAC2 (2 μM) is given as “significantly”. In addition, the “inhibition of HDAC3, single concentration screen” value against HDAC3 (2 μM) is given as “significantly”. For the same compound, the “inhibition of HDAC1, single concentration screen” value against HDAC1 (2 μM) is reported as “significantly”.
With `CCCCCCCC(=O)SCC/C=C/[C@@H]1CC(=O)NCc2cccc(n2)CN(C)CC(=O)N[C@@H](C(C)C)C(=O)O1` [Analogue 8], the “GI50 in the dose response assay (in words)” value in the data set with 60 NCI cell lines is given as “micromolar GI50s”. In addition, the “inhibition of HDAC6, single concentration screen” value on HDAC6 (1 μM) is “slightly greater inhibition of HDAC6 compared to 6 and 7”.
Broadly, the GI50 is the concentration at which growth is held to half of that of the control. Turning to `CCCCCCCC(=O)SCC/C=C/[C@@H]1CC(=O)NCc2nc(cs2)C2=N[C@@](C)(CS2)C(=O)N[C@@H](C(C)C)C(=O)O1` [Largazole], the GI50 in data set [3] was 44 nM. Also, the metabolic conversion result in data set [4] is given as “rapidly converted to the active metabolite largazole thiol”. The “concentration at which significant induction of global acetylation was observed” value in data set [2] came to 10 nM.
Turning to `CCCCCCCC(=O)SCC/C=C/[C@@H]1CC(=O)NCc2cccc(n2)CN(Cc2cccc3ccccc23)CC(=O)N[C@@H](C(C)C)C(=O)O1` [Analogue 13], in data set [2] (HCT116, even at 100 nM), the global acetylation observed result was “hardly any global acetylation”.
